Columns and labels:
Type in all cases: in vivo
[1] = test system: barnyardgrass (Echinochloa crus-galli); experiment: Test A preemergence, directed soil spray, visual injury rating; details: Echinochloa crus-galli, pre-emergence, 240 h, 0 is no effect, 100 is complete control, read-out: Plant response rating (0 to 100 scale), Barnyardgrass; for pest or weed control at 125 g/ha: 125 g ai/ha; for pest or weed control at 500 g/ha: 500 g ai/ha
Outline: (§1)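 Seeds sown in a loam soil–sand blend received a directed preemergence soil spray of test chemical in a non-phytotoxic solvent mixture with surfactant. Postemergence plants were sprayed at 2 to 10 cm, one- to two-leaf stage. After approximately 10 d in greenhouse, injury was visually rated 0 (no effect) to 100 (complete control) against untreated controls.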

[2] = test system: foxtail, giant (giant foxtail, Setaria faberii); experiment: as above; details: Setaria faberi, pre-emergence, 240 h, 0 is no effect, 100 is complete control, read-out: Plant response rating (0 to 100 scale), Foxtail, Giant; for pest or weed control at 125 g/ha: 125 g ai/ha; for pest or weed control at 500 g/ha: 500 g ai/ha
Outline: as §1

[3] = test system: ragweed (common ragweed, Ambrosia elatior); experiment: as above; details: Ambrosia artemisiifolia, pre-emergence, 240 h, 0 is no effect, 100 is complete control, read-out: Plant response rating (0 to 100 scale), Ragweed; for pest or weed control at 125 g/ha: 125 g ai/ha; for pest or weed control at 500 g/ha: 500 g ai/ha
Outline: as §1

[4] = test system: ryegrass, It. (Italian ryegrass, Lolium multiflorum); experiment: as above; details: Lolium multiflorum, pre-emergence, 240 h, 0 is no effect, 100 is complete control, read-out: Plant response rating (0 to 100 scale), Ryegrass, It.; for pest or weed control at 125 g/ha: 125 g ai/ha; for pest or weed control at 500 g/ha: 500 g ai/ha
Outline: as §1

[5] = test system: barnyardgrass (Echinochloa crus-galli); experiment: Test B flooded paddy test, visual rating; details: Echinochloa crus-galli, 360 h; Flood, 250 g ai/ha, applied to paddy water, rated after 13 to 15 d; read-out: Barnyardgrass plant response rating (0 to 100 scale, 0 is no effect, 100 is complete control)
Outline: (§2)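 Plants at the 2-leaf stage were flooded to 3 cm above soil, and test compounds were applied directly into the paddy water, which was held at that depth throughout. After 13 to 15 d in a greenhouse, injury was rated visually against untreated controls on a 0–100 scale (0 no effect, 100 complete control).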

[6] = test system: ducksalad (Heteranthera limosa); experiment: Test B flooded paddy test, visual rating; details: Heteranthera limosa, 360 h; Flood, 250 g ai/ha, applied to paddy water, rated after 13 to 15 d; read-out: Ducksalad plant response rating (0 to 100 scale, 0 is no effect, 100 is complete control)
Outline: as §2

rice (Oryza sativa) = experiment: Test B flooded paddy test, visual rating; details: Oryza sativa, 360 h; Flood, 250 g ai/ha, applied to paddy water, rated after 13 to 15 d; read-out: Rice plant response rating (0 to 100 scale, 0 is no effect, 100 is complete control)
Outline: as §2

[7] = test system: sedge, umbrella (small-flower umbrella sedge, Cyperus difformis); experiment: Test B flooded paddy test, visual rating; details: Cyperus difformis, 360 h; Flood, 250 g ai/ha, applied to paddy water, rated after 13 to 15 d; read-out: Sedge, Umbrella plant response rating (0 to 100 scale, 0 is no effect, 100 is complete control)
Outline: as §2

[8] = test system: barnyardgrass (Echinochloa crus-galli); experiment: Test A postemergence application, visual injury rating; details: Echinochloa crus-galli, post-emergence, 240 h, 0 to 100 scale, 0 no effect, 100 complete control, read-out: Barnyardgrass plant response rating; for pest or weed control at 125 g/ha: 125 g ai/ha; for pest or weed control at 500 g/ha: 500 g ai/ha
Outline: as §1

[9] = test system: blackgrass (Alopecurus myosuroides); experiment: as above; details: Alopecurus myosuroides, post-emergence, 240 h, 0 to 100 scale, 0 no effect, 100 complete control, read-out: Blackgrass plant response rating; for pest or weed control at 125 g/ha: 125 g ai/ha; for pest or weed control at 500 g/ha: 500 g ai/ha
Outline: as §1

corn (Zea mays) = experiment: as above; details: Zea mays, post-emergence, 240 h, 0 to 100 scale, 0 no effect, 100 complete control, read-out: Corn plant response rating; for plant injury at 125 g/ha: 125 g ai/ha; for plant injury at 500 g/ha: 500 g ai/ha
Outline: as §1

[10] = test system: foxtail, giant (giant foxtail, Setaria faberii); experiment: as above; details: Setaria faberi, post-emergence, 240 h, 0 to 100 scale, 0 no effect, 100 complete control, read-out: Foxtail, Giant plant response rating; for pest or weed control at 125 g/ha: 125 g ai/ha; for pest or weed control at 500 g/ha: 500 g ai/ha
Outline: as §1

[11] = test system: galium (catchweed bedstraw, Galium aparine); experiment: as above; details: Galium, post-emergence, 240 h, 0 to 100 scale, 0 no effect, 100 complete control, read-out: Galium plant response rating; for pest or weed control at 125 g/ha: 125 g ai/ha; for pest or weed control at 500 g/ha: 500 g ai/ha
Outline: as §1

kochia (Kochia scoparia) = experiment: as above; details: Bassia scoparia, post-emergence, 240 h, 0 to 100 scale, 0 no effect, 100 complete control, read-out: Kochia plant response rating; for pest or weed control at 125 g/ha: 125 g ai/ha; for pest or weed control at 500 g/ha: 500 g ai/ha
Outline: as §1

[12] = test system: pigweed (Amaranthus retroflexus); experiment: as above; details: Amaranthus retroflexus, post-emergence, 240 h, 0 to 100 scale, 0 no effect, 100 complete control, read-out: Pigweed plant response rating; for pest or weed control at 125 g/ha: 125 g ai/ha; for pest or weed control at 500 g/ha: 500 g ai/ha
Outline: as §1

[13] = test system: ragweed (common ragweed, Ambrosia elatior); experiment: as above; details: Ambrosia artemisiifolia, post-emergence, 240 h, 0 to 100 scale, 0 no effect, 100 complete control, read-out: Ragweed plant response rating; for pest or weed control at 125 g/ha: 125 g ai/ha; for pest or weed control at 500 g/ha: 500 g ai/ha
Outline: as §1

[14] = test system: ryegrass, It. (Italian ryegrass, Lolium multiflorum); experiment: as above; details: Lolium multiflorum, post-emergence, 240 h, 0 to 100 scale, 0 no effect, 100 complete control, read-out: Ryegrass, It. plant response rating; for pest or weed control at 125 g/ha: 125 g ai/ha; for pest or weed control at 500 g/ha: 500 g ai/ha
Outline: as §1

[15] = test system: wheat (Triticum aestivum); experiment: as above; details: Triticum aestivum, post-emergence, 240 h, 0 to 100 scale, 0 no effect, 100 complete control, read-out: Wheat plant response rating; for plant injury at 125 g/ha: 125 g ai/ha; for plant injury at 500 g/ha: 500 g ai/ha
Outline: as §1

Row | SMILES | pest or weed control at 125 g/ha [1] [%] | pest or weed control at 500 g/ha [1] [%] | pest or weed control at 125 g/ha [2] [%] | pest or weed control at 500 g/ha [2] [%] | pest or weed control at 125 g/ha [3] [%] | pest or weed control at 500 g/ha [3] [%] | pest or weed control at 125 g/ha [4] [%] | pest or weed control at 500 g/ha [4] [%] | pest or weed control at 250 g/ha [5] [%] | pest or weed control at 250 g/ha [6] [%] | plant injury at 250 g/ha (rice (Oryza sativa)) [%] | pest or weed control at 250 g/ha [7] [%] | pest or weed control at 125 g/ha [8] [%] | pest or weed control at 500 g/ha [8] [%] | pest or weed control at 125 g/ha [9] [%] | pest or weed control at 500 g/ha [9] [%] | plant injury at 125 g/ha (corn (Zea mays)) [%] | plant injury at 500 g/ha (corn (Zea mays)) [%] | pest or weed control at 125 g/ha [10] [%] | pest or weed control at 500 g/ha [10] [%] | other results
1 | Cc1cc2cccc(-c3c(O)c(C)nn(C)c3=O)c2o1 [Compound 12, 5-hydroxy-2,6-dimethyl-4-(2-methyl-7-benzofuranyl)-3(2H)-pyridazinone] | 0 | 50 | 10 | 60 | 60 | 80 | 100 | 100 | 0 | 0 | 0 | 0 | 10 | 30 | 40 | 80 | 0 | 10 | 20 | 40 | pest or weed control at 125 g/ha [11]: 80%; pest or weed control at 500 g/ha [11]: 90%; pest or weed control at 125 g/ha (kochia (Kochia scoparia)): 0%; pest or weed control at 500 g/ha (kochia (Kochia scoparia)): 50%; pest or weed control at 125 g/ha [12]: 30%; pest or weed control at 500 g/ha [12]: 50%; pest or weed control at 125 g/ha [13]: 40%; pest or weed control at 500 g/ha [13]: 80%; pest or weed control at 125 g/ha [14]: 90%; pest or weed control at 500 g/ha [14]: 100%; plant injury at 125 g/ha [15]: 0%; plant injury at 500 g/ha [15]: 20%
2 | Cc1cc2ccc(C)c(-c3c(O)c(C)nn(C)c3=O)c2o1 [Compound 10, 4-(2,6-dimethyl-7-benzofuranyl)-5-hydroxy-2,6-dimethyl-3(2H)-pyridazinone] | 80 | 90 | 80 | 100 | 90 | 90 | 100 | 100 | 0 | 0 | 0 | 0 | 50 | 90 | 60 | 90 | 10 | 30 | 80 | 90 | pest or weed control at 125 g/ha [11]: 100%; pest or weed control at 500 g/ha [11]: 100%; pest or weed control at 125 g/ha (kochia (Kochia scoparia)): 100%; pest or weed control at 500 g/ha (kochia (Kochia scoparia)): 100%; pest or weed control at 125 g/ha [12]: 90%; pest or weed control at 500 g/ha [12]: 100%; pest or weed control at 125 g/ha [13]: 100%; pest or weed control at 500 g/ha [13]: 100%; pest or weed control at 125 g/ha [14]: 100%; pest or weed control at 500 g/ha [14]: 100%; plant injury at 125 g/ha [15]: 20%; plant injury at 500 g/ha [15]: 60%

— patent US10750743B2, “Pyridazinone herbicides” (E.I. DU PONT DE NEMOURS AND COMPANY, priority 2015, dated 2020)
